The values that follow come from patent US10449168B2 (The University of Toledo, priority 2015, dated 2019).

Holding throughout (assay type): biochemical
The target in test [1] is Vibrio cholerae aspartate semialdehyde dehydrogenase (vcASADH). As to the kind of experiment: vcASADH kinetic assay: reverse direction, NADPH absorbance at 340 nm; Ki from Dixon plot assuming competitive inhibition against ASA. As to conditions: pH 8.6, r.t., 0.3 mM ASA, 1.5 mM NADP, 20 mM phosphate.
Test [2] concerns the target T1, Streptococcus pneumoniae aspartate semialdehyde dehydrogenase (spASADH) (Streptococcus pneumoniae, UniProt Q8DQ00).
T1 construct: homodimer from general knowledge
T1 sequence (Q8DQ00 1-358): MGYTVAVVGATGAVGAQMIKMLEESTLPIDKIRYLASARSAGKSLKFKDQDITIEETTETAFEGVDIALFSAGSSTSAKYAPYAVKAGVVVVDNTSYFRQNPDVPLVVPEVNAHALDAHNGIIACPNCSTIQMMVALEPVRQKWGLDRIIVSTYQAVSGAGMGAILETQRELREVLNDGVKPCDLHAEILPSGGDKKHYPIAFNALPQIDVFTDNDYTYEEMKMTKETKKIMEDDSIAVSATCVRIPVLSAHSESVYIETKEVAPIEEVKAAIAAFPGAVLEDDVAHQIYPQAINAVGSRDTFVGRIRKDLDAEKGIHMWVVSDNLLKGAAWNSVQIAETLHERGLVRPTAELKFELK
In words: spASADH kinetic assay: reverse direction, NADPH absorbance at 340 nm; Ki from Dixon plot assuming competitive inhibition against ASA. As to conditions: pH 8.6, r.t., 0.15 mM ASA, 1.5 mM NADP, 20 mM phosphate.

In test [3] the target is Streptococcus pneumoniae aspartate semialdehyde dehydrogenase (spASADH) (Streptococcus pneumoniae, UniProt Q8DQ00). In words: biochemical. As to conditions: for inhibition / binding affinity for spASADH (in words): relative to parent or neighbouring derivative.

As usually defined, the Ki is a dissociation constant, usually derived from enzyme kinetics or from competition with a known ligand. `CN(CC(=O)O)Cc1ccc(C(=O)O)c(C(=O)O)c1` [Compound 10, N-methyl, N-carboxymethyl-3,4-dicarboxybenzylamine]: the Ki turned out to be 675 ± 54 µM in test [1] (FIG. 4, Table 1) and 296 ± 36 µM in test [2] (FIG. 4, Table 1).

Regarding `C=CCN(CC(=O)O)Cc1ccc(C(=O)O)c(C(=O)O)c1` [Compound 11, N-allyl, N-carboxymethyl-3,4-dicarboxybenzylamine], the Ki in test [1] (FIG. 4, Table 1) came out at 663 ± 36 µM; in test [2] (FIG. 4, Table 1), 303 ± 22 µM.

On to `O=C(O)CN(Cc1ccccc1)Cc1ccc(C(=O)O)c(C(=O)O)c1` [Compound 13, N-benzyl, N-carboxymethyl-3,4-dicarboxybenzylamine], for which the inhibitory constant (Ki) was 696 ± 33 µM in test [1] (FIG. 4, Table 1) and 297 ± 14 µM in test [2] (FIG. 4, Table 1).

On to `O=C(O)CN(Cc1ccc(C(=O)O)c(C(=O)O)c1)Cc1cccc2ccccc12` [Compound 14], for which, in test [3], the “inhibition / binding affinity for spASADH (in words)” value (from here on “inhibition / binding affinity”) is on record as “slightly worse inhibition”.

As for `O=C(O)CN(Cc1ccc(C(=O)O)c(C(=O)O)c1)c1ccc2ccccc2c1` [Compound 15, N-(2-naphthyl)-N-carboxymethyl-3,4-dicarboxybenzylamine], the “inhibition / binding affinity” value in test [3] is “slightly worse inhibition”. Further, the Ki was 724 ± 47 µM in test [1] (FIG. 4, Table 1) and 329 ± 22 µM in test [2] (FIG. 4, Table 1).

Turning to `O=C(O)CN(CCN1CCOCC1)Cc1ccc(C(=O)O)c(C(=O)O)c1` [Compound 16, N-(ethylmorpholino)-N-carboxymethyl-3,4-dicarboxybenzylamine], the “inhibition / binding affinity” value in test [3] is “only a slight improvement”.

Turning to `O=C(O)CN(Cc1ccc(C(=O)O)c(C(=O)O)c1)c1ccc(-c2ccccc2)cc1` [Compound 17, N-(4-biphenyl)-N-carboxymethyl-3,4-dicarboxybenzylamine], in test [3] (relative to parent benzyl derivative), the “improved inhibition of spASADH relative to the parent benzyl derivative” value amounted to 25 fold. Also, in test [3], the “inhibition / binding affinity” value was “improved binding affinity”. In test [1] (FIG. 4, Table 1), the Ki came out at 634 ± 29 µM.

In the case of `O=C(O)CN(Cc1ccc(C(=O)O)c(C(=O)O)c1)Cc1ccccc1Br` [Compound 18, N-(2-bromobenzyl)-N-carboxymethyl-3,4-dicarboxybenzylamine], the “inhibition / binding affinity” value in test [3] is reported as “did not yield any improvement in affinity”. Moreover, the inhibition constant (Ki) was 737 ± 49 µM in test [1] (FIG. 5, Table 2) and 529 ± 38 µM in test [2] (FIG. 5, Table 2).

As for `O=C(O)CN(Cc1cccc(Br)c1)Cc1ccc(C(=O)O)c(C(=O)O)c1` [Compound 19, N-(3-bromobenzyl)-N-carboxymethyl-3,4-dicarboxybenzylamine], in test [3], the “inhibition / binding affinity” value is listed as “did not yield any improvement in affinity”. Moreover, the Ki came to 665 ± 37 µM in test [1] (FIG. 5, Table 2) and 442 ± 29 µM in test [2] (FIG. 5, Table 2).

Consider `Cc1ccccc1CN(CC(=O)O)Cc1ccc(C(=O)O)c(C(=O)O)c1` [Compound 21, N-(2-methylbenzyl)-N-carboxymethyl-3,4-dicarboxybenzylamine], for which, in test [3], the “inhibition / binding affinity” value is “did not yield any improvement in affinity”. The inhibition constant (Ki) stood at 721 ± 46 µM in test [1] (FIG. 5, Table 2) and 524 ± 27 µM in test [2] (FIG. 5, Table 2).

With `Cc1cccc(CN(CC(=O)O)Cc2ccc(C(=O)O)c(C(=O)O)c2)c1` [Compound 22, N-(3-methylbenzyl)-N-carboxymethyl-3,4-dicarboxybenzylamine], the “inhibition / binding affinity” value in test [3] is “did not yield any improvement in affinity”. Further, the inhibition constant (Ki) in test [1] (FIG. 5, Table 2) was determined as 690 ± 41 µM; in test [2] (FIG. 5, Table 2), 430 ± 22 µM.

Take `O=C(O)CN(Cc1ccc(C(F)(F)F)cc1)Cc1ccc(C(=O)O)c(C(=O)O)c1` [Compound 26, N-(4-trifluoromethylbenzyl)-N-carboxymethyl-3,4-dicarboxybenzylamine]: the “inhibition / binding affinity” value in test [3] was “two-fold additional improvement in binding affinity”. Besides, the Ki in test [1] (FIG. 5, Table 2) was determined as 628 ± 48 µM.

For `O=C(O)CN(Cc1ccc(OC(F)(F)F)cc1)Cc1ccc(C(=O)O)c(C(=O)O)c1` [Compound 29, N-(4-trifluoromethoxybenzyl)-N-carboxymethyl-3,4-dicarboxybenzylamine], in test [3], the “inhibition / binding affinity” value is on record as “two-fold additional improvement in binding affinity”. In addition, the Ki in test [1] (FIG. 5, Table 2) came to 663 ± 39 µM; in test [2] (FIG. 5, Table 2), 36 ± 6 µM.

On to `O=C(O)CN(Cc1ccc(OC(F)F)cc1)Cc1ccc(C(=O)O)c(C(=O)O)c1` [Compound 30, N-(4-difluoromethoxybenzyl)-N-carboxymethyl-3,4-dicarboxybenzylamine], for which the “inhibition / binding affinity” value in test [3] is recorded as “reversed this improvement”. In addition, the inhibition constant Ki in test [1] (FIG. 5, Table 2) is 698 ± 44 µM; in test [2] (FIG. 5, Table 2), 54 ± 5 µM.

Consider `O=C(O)CN(Cc1ccc(C(=O)O)cc1)Cc1ccc(C(=O)O)c(C(=O)O)c1` [Compound 31, N-(4-carboxybenzyl)-N-carboxymethyl-3,4-dicarboxybenzylamine], for which the “inhibition / binding affinity” value in test [3] is given as “comparable affinity to that observed for the p-methylbenzyl derivative (23)”. For the same compound, the inhibition constant (Ki) in test [1] (FIG. 5, Table 2) is 635 ± 55 µM; in test [2] (FIG. 5, Table 2), 72 ± 7 µM.

As for `NC(=O)c1ccc(CN(CC(=O)O)Cc2ccc(C(=O)O)c(C(=O)O)c2)cc1` [Compound 32, N-(4-carboxamidebenzyl)-N-carboxymethyl-3,4-dicarboxybenzylamine], the loss of affinity in test [3] (carboxamide vs p-carboxyl derivative (31)) is listed as 3 fold. For the same compound, the Ki in test [1] (FIG. 5, Table 2) stood at 649 ± 25 µM; in test [2] (FIG. 5, Table 2), 229 ± 32 µM.

On to `CC(C)(C)c1ccc(CN(CC(=O)O)Cc2ccc(C(=O)O)c(C(=O)O)c2)cc1` [Compound 33, N-(4-t-butylbenzyl)-N-carboxymethyl-3,4-dicarboxybenzylamine], for which, in test [3] (Gram-positive spASADH over Gram-negative vcASADH), the “selectivity for spASADH relative to vcASADH” value is “over 40 fold”. Further, the Ki in test [3] (competitive vs ASA, 0.15 mM ASA, pH 8.6, read-out: Ki for spASADH) was 16 µM; in test [1] (FIG. 5, Table 2), 648 ± 32 µM. In test [3], the “inhibition / binding affinity” value was “additional two-fold improvement”.

On to `O=C(O)CN(Cc1ccc(C(F)(C(F)(F)F)C(F)(F)F)cc1)Cc1ccc(C(=O)O)c(C(=O)O)c1` [Compound 34, N-(4-(2-perfluoropropyl))-N-carboxymethyl-3,4-dicarboxybenzylamine], for which, in test [3], the affinity, expressed as Ki, was 9 µM and the “inhibition / binding affinity” value is given as “low micromolar K value”. The Ki in test [1] (FIG. 5, Table 2) is 639 ± 37 µM.

With `O=C(O)CCN(Cc1ccc(Br)cc1)Cc1ccc(C(=O)O)c(C(=O)O)c1` [Compound 35, N-(4-bromobenzyl)-N-carboxyethyl-3,4-dicarboxybenzylamine], in test [3], the “inhibition / binding affinity” value is on record as “substantial affinity loss”. The Ki in test [2] (FIG. 5, Table 2) came out at 3600 ± 230 µM.

Regarding `O=C(O)CN(Cc1ccc(C(F)(F)F)cc1)Cc1ccc(C(=O)O)c(C(=O)O)c1` [Compound 36, N-(4-trifluoromethylbenzyl)-N-carboxymethyl-3,4-dicarboxybenzylamine], the “inhibition / binding affinity” value in test [3] was “substantial affinity loss”. Besides, affinity in test [2] (FIG. 5, Table 2) was put at a Ki of 3800 ± 220 µM.

As for `CC(=O)N(CC(=O)O)Cc1ccc(C(=O)O)c(C(=O)O)c1` [Compound 37, N-acetal-N-carboxymethyl-3,4-dicarboxybenzylamine], the Ki in test [1] (FIG. 4, Table 1) amounted to 655 ± 51 µM; in test [2] (FIG. 4, Table 1), 276 ± 16 µM.

Consider `O=C(O)CN(Cc1ccc(C=Cc2ccccc2)cc1)Cc1ccc(C(=O)O)c(C(=O)O)c1` [Compound 38, N-((4-(2-benzyl)vinyl)benzyl)-N-carboxymethyl-3,4-dicarboxybenzylamine], for which the affinity in test [1] (FIG. 5, Table 2), expressed as Ki, was 1100 ± 200 µM.

Consider “N-(1-naphthyl)-N-carboxymethyl-3,4-dicarboxybenzylamine [Compound 14]”, for which the inhibition constant (Ki) in test [1] (FIG. 4, Table 1) worked out at 749 ± 54 µM; in test [2] (FIG. 4, Table 1) it was 396 ± 42 µM.

In the case of “N-acetonitrile, N-carboxymethyl-3,4-dicarboxybenzylamine [Compound 12]”, the Ki in test [1] (FIG. 4, Table 1) came to 498 ± 27 µM; in test [2] (FIG. 4, Table 1), 220 ± 14 µM.
